Tested on: histone modifications in MCF-7 cells
Assay: Histone modification analysis by bottom-up LC-MS/MS
Assay type: cell-based
Details: for Average ratio, H2A1_12_17 unmod (AKAKTR): peptide H2A1_12_17 unmod; for Average ratio, H2A1_12_17 unmod (AKAKTR) / Average ratio, H2A3_12_17 K15me1 (AKAKSR) / Ratio, H2A1_12_17 unmod / Ratio, H2A3_12_17 K15me1: MCF-7; for Average ratio, H2A1_12_17 unmod (AKAKTR) / Average ratio, H2A3_12_17 K15me1 (AKAKSR): average of 3 replicates; for Average ratio, H2A3_12_17 K15me1 (AKAKSR): peptide H2A3_12_17 K15me1
Description: In this approach. […] Histones are then extracted from cell pellets and chemically derivatized with propionic anhydride, digested with trypsin, subjected to a second round of propionylation, and analyzed by LC-MS/MS. Measuring the relative intensity of modified versus unmodified forms of individual histone peptides enables simultaneous monitoring of multiple potential biomarkers of MYST inhibition. To minimize false positives, we focused on abundant and reproducible modifications (average stoichiometry of greater than 1% across triplicate samples, standard deviation less than or equal to the average measurement). To account for potential histone modification crosstalk, changes in both acetylated and methylated peptides were evaluated. 38 modified peptides passed this reproducible detection threshold including several established KAT biomarkers[41] including H3K9Ac (KAT2A/B), H3K18Ac (KAT3A/B), H3K14Ac (KAT7), H3K23Ac (KAT6A/B), H4K16Ac (KAT8), and H2A.ZK4/K7Ac (KAT5; Fig. 4B).
Histone modification analysis
MCF-7 cells were cultured at 37 °C under 5% CO2 in EMEM (Quality Biological, 112-016-101) with 0.01 mg/mL human recombinant insulin (Sigma Aldrich, 91077C), 2 mM L-glutamine (Quality Biological, 118- […]
human recombinant insulin.
1119, WM-3835). Following 24 h inhibitor treatment, cells were washed with ice-cold 1× PBS and scraped in 150 µL of Nuclear Isolation Buffer (NIB) containing 0.1% NP-40 for histone extraction using a modified protocol from the Garcia laboratory. 9 Briefly, cell suspensions were incubated on ice for 5 minutes, and […]
nuclei were pelleted by centrifugation (600 rcf, 4°C, 5 min). Pelleted nuclei were washed twice with 150 μL of detergent-free NIB buffer, followed by centrifugation (600 rcf, 4°C, 5 min) to remove all detergent.
Nuclei were then resuspended in 400 μL of 0.4 N H₂SO₄ and rotated at 4°C overnight for acid extraction of histones. The following day, samples were centrifuged (11,000 rcf, 4°C, 10 min) and the histone-containing supernatant was transferred to a fresh tube. Trichloroacetic acid (100% TCA) was added to achieve a final concentration of 20% (v/v), tubes were inverted once to mix, and histone precipitation was performed on ice for at least 3 hours or overnight at 4°C. Precipitated histones were collected by centrifugation (11,000 rcf, 4°C, 10 min) and the supernatant carefully removed, leaving a visible film of histones on the tube wall or bottom. Histone pellets were subjected to sequential washes with 1 mL of ice-cold acidified acetone (0.1% 12 N HCl) followed by 1 mL of 100% ice-cold acetone, with centrifugation (11,000 rcf, 4°C, 5 min) after each wash. Samples were air-dried at room temperature, resuspended in 40 µL of ddH₂O, and protein […]
analysis, 1-2 µg of purified histones were loaded per lane and processed according to the general immunoblotting protocol described in General Materials and Methods.
Analysis of histone modifications by LC-MS/MS
Preparation of histone samples for LC-MS/MS was performed analogously to the procedure for immunoblotting above, with the following modifications. MCF7 cells (4.2 × 106) were seeded in 15 cm dishes and treated with PF-9363 or vehicle. Experiments were performed in triplicate. Following treatment and PBS washing, cells were scraped and collected in 15 mL falcon tubes, pelleted (500 rcf, 4°C, 5 min), resuspended in 1 mL cold PBS, transferred to microcentrifuge tubes, and pelleted again before flash-freezing in liquid nitrogen for storage at -80°C. For extraction, cell pellets (~100 μL) were resuspended in NIB buffer at a 1:10 ratio, and cells were lysed with NIB buffer containing 0.2% NP-40 for 8 minutes on ice. Nuclei were pelleted at 1,000 rcf for 8 minutes and washed three times with 500 μL detergent-free NIB buffer. Histones were extracted using 800 μL of 0.2 M H₂SO₄, and after centrifugation (3,400 rcf, 4°C, 10

`COc1cccc(OC)c1S(=O)(=O)Nc1noc2cc(Cn3cccn3)cc(OC)c12` [PF-9363] was tested, and the “Average ratio, H2A1_1_11 K5ac” value (PF-9363 (0.1 mM)) was 0.8521, the “Average ratio, H2A1_4_11 K5ac” value (PF-9363 (0.1 mM)) was 0.0421 and the “Average ratio, H2A1_4_11 K9ac” value (PF-9363 (0.1 mM)) was 0.0404. For the same compound, the “Average ratio, H2A1_4_11 unmod” value (PF-9363 (0.1 mM)) was 0.9065, the “Average ratio, H2A1_36_42 unmod” value (PF-9363 (0.1 mM)) was 0.9991 and the “Average ratio, H2A3_36_42 unmod” value (PF-9363 (0.1 mM)) was 1.0000. For the same compound, the “Average ratio, H2AJ_4_11 K5acK9ac” value (PF-9363 (0.1 mM)) was 0.8702, the “Average ratio, H2AV_1_19 K4ac” value (PF-9363 (0.1 mM)) was 0.0404 and the “Average ratio, H2AV_1_19 unmod” value (PF-9363 (0.1 mM)) was 0.8917. The “Average ratio, H2AX_36_42 unmod” value (PF-9363 (0.1 mM)) was 1.0000, the “Average ratio, H2AZ_1_19 K11ac” value (PF-9363 (0.1 mM)) was 0.0091 and the “Average ratio, H2AZ_1_19 unmod” value (PF-9363 (0.1 mM)) was 0.8729. For the same compound, the “Average ratio, H3_73_83 K79me1” value (PF-9363 (0.1 mM)) was 0.0887, the “Average ratio, H3_73_83 K79me2” value (PF-9363 (0.1 mM)) was 0.0735 and the “Average ratio, H3_73_83 unmod” value (PF-9363 (0.1 mM)) was 0.8364. For the same compound, the “Average ratio, H4_4_17 K12acK16ac” value (PF-9363 (0.1 mM)) was 0.0092, the “Average ratio, H4_4_17 unmod” value (PF-9363 (0.1 mM)) was 0.6321 and the “Average ratio, H4_20_23 K20me1” value (PF-9363 (0.1 mM)) was 0.0308. For the same compound, the “Average ratio, H4_20_23 unmod” value (PF-9363 (0.1 mM)) was 0.0293, the “Average ratio, H2A1_12_17 unmod (AKAKTR)” value (PF-9363 (0.1 mM)) was 0.4892 and the “Average ratio, H2A3_12_17 K15me1 (AKAKSR)” value (PF-9363 (0.1 mM)) was 0.4715. For the same compound, the “Average ratio, H2A1_1_11 K5ac” value (PF-9363 (30 mM)) was 0.8566, the “Average ratio, H2A1_4_11 K5ac” value (PF-9363 (30 mM)) was 0.0480 and the “Average ratio, H2A1_4_11 K9ac” value (PF-9363 (30 mM)) was 0.0347. The “Average ratio, H2A1_4_11 unmod” value (PF-9363 (30 mM)) was 0.9114, the “Average ratio, H2A1_36_42 unmod” value (PF-9363 (30 mM)) was 0.9988 and the “Average ratio, H2A3_36_42 unmod” value (PF-9363 (30 mM)) was 1.0000. The “Average ratio, H2AJ_4_11 K5acK9ac” value (PF-9363 (30 mM)) was 0.8922, the “Average ratio, H2AV_1_19 K4ac” value (PF-9363 (30 mM)) was 0.0413 and the “Average ratio, H2AV_1_19 unmod” value (PF-9363 (30 mM)) was 0.7807. For the same compound, the “Average ratio, H2AX_4_11 unmod” value (PF-9363 (30 mM)) was 0.3301, the “Average ratio, H2AX_36_42 unmod” value (PF-9363 (30 mM)) was 1.0000 and the “Average ratio, H2AZ_1_19 K11ac” value (PF-9363 (30 mM)) was 0.0141. The “Average ratio, H2AZ_1_19 unmod” value (PF-9363 (30 mM)) was 0.9481, the “Average ratio, H3_73_83 K79me1” value (PF-9363 (30 mM)) was 0.0821 and the “Average ratio, H3_73_83 K79me2” value (PF-9363 (30 mM)) was 0.0558. The “Average ratio, H3_73_83 unmod” value (PF-9363 (30 mM)) was 0.8605, the “Average ratio, H4_4_17 K12acK16ac” value (PF-9363 (30 mM)) was 0.1819 and the “Average ratio, H4_4_17 unmod” value (PF-9363 (30 mM)) was 0.4341. The “Average ratio, H4_20_23 K20me1” value (PF-9363 (30 mM)) was 0.0237, the “Average ratio, H4_20_23 unmod” value (PF-9363 (30 mM)) was 0.0213 and the “Average ratio, H2A1_12_17 unmod (AKAKTR)” value (PF-9363 (30 mM)) was 0.5017. The “Average ratio, H2A3_12_17 K15me1 (AKAKSR)” value (PF-9363 (30 mM)) was 0.4920, the “Ratio, H2A1_12_17 unmod” value (Replicate 1, PF-9363 0.1) was 0.4969 and the “Ratio, H2A3_12_17 K15me1” value (Replicate 1, PF-9363 0.1) was 0.4799. The “Ratio, H2A1_12_17 unmod” value (Replicate 1, PF-9363 1) was 0.5198, the “Ratio, H2A3_12_17 K15me1” value (Replicate 1, PF-9363 1) was 0.5023 and the “Ratio, H2A1_12_17 unmod” value (Replicate 1, PF-9363 10) was 0.4982. The “Ratio, H2A3_12_17 K15me1” value (Replicate 1, PF-9363 10) was 0.4848, the “Ratio, H2A1_12_17 unmod” value (Replicate 1, PF-9363 30) was 0.5053 and the “Ratio, H2A3_12_17 K15me1” value (Replicate 1, PF-9363 30) was 0.497. The “Ratio, H2A1_12_17 unmod” value (Replicate 2, PF-9363 0.1) was 0.484, the “Ratio, H2A3_12_17 K15me1” value (Replicate 2, PF-9363 0.1) was 0.4685 and the “Ratio, H2A1_12_17 unmod” value (Replicate 2, PF-9363 1) was 0.4972. For the same compound, the “Ratio, H2A3_12_17 K15me1” value (Replicate 2, PF-9363 1) was 0.4788, the “Ratio, H2A1_12_17 unmod” value (Replicate 2, PF-9363 10) was 0.498 and the “Ratio, H2A3_12_17 K15me1” value (Replicate 2, PF-9363 10) was 0.4832.

— doi:10.1101/2025.04.25.650653, “Hierarchical small molecule inhibition of MYST acetyltransferases” (bioRxiv, 2025)
